{"source": "patent US10689352B2", "about": "“Solid state forms of trisodium valsartan: sacubitril” (Teva Pharmaceuticals International GMBH, priority 2015, dated 2020)", "key": {"[1]": {"assay": "Storage stability (chemical and polymorphic)", "format": "physicochemical", "description": "A crystalline form according to Paragraph 2, which is characterized by an X-ray powder diffraction pattern having peaks at 5.8, 7.3, 12.9, 15.9, 16.5 and 18.6 degrees two theta±0.2 degrees two theta and also having any one, any two, any three or more additional peaks selected from: 4.3, 9.4, 10.0, 10.9 and 14.7 two theta±0.2 degrees two theta. • 4. A crystalline form according to Paragraph 2, which is characterized by the X-ray powder diffraction pattern having peaks at 7.3, 16.5, 9.4, 10.9 and 14.7 two theta±0.2 degrees two theta and also having any one, any two, any three or more additional peaks selected from: 4.3, 5.8, 10.0, 12.9, 15.9 and 18.6 two theta±0.2 degrees two theta and optionally further characterized by an FTIP spectrum as depicted in FIG. 6. • 5. A crystalline form according to Paragraph 1 or Paragraph 2, which is characterized by the X-ray powder diffraction pattern having peaks at 4.3, 5.8, 7.3, 9.4, 10.0, 10.9, 12.9, 14.7, 15.9, 16.5, and 18.6 two theta±0.2 degrees two theta±0.2 degrees two theta. • 6. A crystalline form according to Paragraph 5, which is further characterized by X-ray powder diffraction d-spacings at: 20.341, 15.261, 12.068, 9.397, 8.826, 8.092, 6.863, 6.024, 5.583, 5.353 and 4.773 Å±0.1 Å. • 7. A crystalline form according to any of Paragraphs 1, 2, 3 or 4, further characterized by an X-ray powder diffraction pattern having one, two, three, four five, or more than 5 additional peaks selected from: 4.3, 5.0, 5.5, 5.8, 7.3, 8.5, 8.9, 9.4, 10.0, 10.9, 11.6, 12.9, 13.7, 13.9, 14.7, 14.8, 15.1, 15.3, 15.9, 16.5, 17.3, 17.6, 18.6, 19.1, 19.5, 20.3, 21.2, 21.9 and 23.1 degrees two theta±0.2 degrees two theta. • 8. A crystalline form according to any of Paragraphs 1, 2, 3, 4, 5, 6 or 7, which is characterized by an X-ray powder diffraction pattern having peaks at: 4.3, 5.0, 5.5, 5.8, 7.3, 8.5, 8.9, 9.4, 10.0, 10.9, 11.6, 12.9, 13.7, 13.9, 14.7, 14.8, 15.1, 15.3, 15.9, 16.5, 17.3, 17.6, 18.6, 19.1, 19.5, 20.3, 21.2, 21.9 and 23.1 degrees two theta±0.2 degrees two theta. • 9. A crystalline form according to Paragraph 8, which is further characterized by the absence of any peak (defined as relative intensity I/Io of less than 1%) between any of two neighboring peaks. • 10. A crystalline form according to any of Paragraphs 1, 2, 3, 4, 5, 6, 7, 8 or 9, further characterized by an X-ray powder diffraction pattern as depicted in FIG. 1 or FIG. 14 and/or a solid state ^13C NMR as depicted in FIG. 5. • 11. A crystalline form according to any of Paragraphs 1, 2, 3, 4, 5, 6, 7, 8, 9 or 10, further characterized by a DSC as depicted in FIG. 2. • 12. A crystalline form according to any of Paragraphs 2-11 further characterized by a solid state ^13C NMR spectrum having peaks at 176.8, 161.9, 141.1, 139.5, 138.6, 137.2, 129.3, 128.7, 126.3, 124.9, 64.2, 60.6, 47.5, 46.1, 40.1, 39.0, 38.1, 34.3, 32.7, 29.8, 28.2, 22.4, 20.2, 17.8, 16.5, 13.7, 11.7 ppm±0.2 ppm. • 13. […] A crystalline form according to any of Paragraphs 1, 2, 3, 4, 5, 6, 7, 8, 9, 10, 11, 12, 13, 14 or 15, which is a hydrate, preferably wherein the crystalline form contains from 5.2 to 5.7 wt % water. • 17. A crystalline form according to any of Paragraphs 1, 2, 3, 4, 5, 6, 7, 8, 9, 10, 11, 12, 13, 14, 15 or 16, comprising agglomerates having spherical morphology, preferably wherein: at least 50%, at least 60%, at least 70%, at least 80% or at least 90% of the agglomerates have spherical morphology, preferably wherein the circularity of at least 50% (preferably: at least 60%, at least 70%, at least 80% or at least 90%) of the particles on a volume basis is: greater than or equal to about 0.85, about 0.86 to 1, about 0.88 to about 0.98, about 0.90 to about 0.96, about 0.92 to about 0.96. • 18. […] A process according to any of Paragraphs 18 or 19, wherein the solution in step (i) is prepared by heating, preferably to a temperature of about 80° C. to about 150° C., about 90° C. to about 130° C. • 21. […]"}, "[2]": {"conditions": "characterized according to Carr RL, Chem Eng 1965", "procedure": "Whole amount material was put in graduated cylinder. A graduated cylinder with the sample was attached to Erweka SVM tapped density tester and tapped with 1250 strikes. Volume of the powder is measured. Bulk density is measured as ratio between mass of sample (ms) and unsettled apparent volume (V0) of sample in graduated cylinder. Tap Density is measured as ratio between mass of sample (ms) and final tapped volume of sample (Vf). Compressibility index and Hausner ratio were calculated according to obtained results of bulk and tapped density."}, "[3]": {"assay": "Circularity (morphology) by image analysis, Morphologi G3", "format": "physicochemical", "conditions": "agglomerates, sieved through 300 μm, volume basis; e.g. as prepared according to Example 19", "description": "As used herein, circularity refers to the ratio of the perimeter of a circle with the same area as the particle divided by the perimeter of the actual particle image. Circularity is preferably determined by measurement of the particles following sieving through a sieve having a pore size of 300 μm. The particles are preferably measured following analysis of photographs of the particles at an appropriate magnification (e.g. 2.5 to 5.0 times magnification). More particularly, the sample is analyzed using Morphologi G3 instrumentation. The collected data can be processed using image analysis. Circularity is a ratio of the perimeter of a circle with the same area as the particle divided by the perimeter of the actual particle image.\nSample was sieved through a sieve with pore size 300 μm. The sieved material was dispersed on the glass surface at 0.5 bar and then images were taken at 2.5-5.0× magnification using Morphologi G3 (Malvern). Collected data was processed using image analysis. Circularity is a ratio of the perimeter of a circle with the same area as the particle divided by the perimeter of the actual particle image."}}, "data": [{"substance": "trisodium valsartan:sacubitril [Form II]", "values": [{"measurement": "chemical and polymorphic stability", "setting": "[1]; protected from moisture, stored at 25° C./60% RH", "value": "chemically and polymorphically stable"}, {"measurement": "chemical and polymorphic stability", "setting": "[1]; protected from moisture, stored at 40° C./75% RH", "value": "chemically and polymorphically stable"}, {"measurement": "chemical and polymorphic stability", "setting": "[1]; protected from moisture, stored at 50° C.", "value": "chemically and polymorphically stable"}, {"measurement": "chemical and polymorphic stability", "setting": "[1]; protected from moisture, stored at 50° C./80% RH", "value": "chemically and polymorphically stable"}, {"measurement": "chemical and polymorphic stability", "setting": "[1]; stored for 8 weeks at 25° C./60% RH", "value": "chemically and polymorphically stable"}, {"measurement": "chemical and polymorphic stability", "setting": "[1]; stored for 8 weeks at 50° C.", "value": "chemically and polymorphically stable"}, {"measurement": "flow properties", "setting": "[2]", "value": "good-excellent"}, {"measurement": "circularity (v0.5)", "setting": "[3]", "value": "greater than 0.85"}]}]}
